Values joined by “and” are separate entries in the source; they are usually repeats but may differ in a detail not shown here. Identical values can stand only once.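 Cells were grown in 96-well plates and exposed to each compound for 48 hours at five concentrations; endpoints were interpolated linearly between bracketing concentrations, or set to the highest concentration if not reached. GI50 is the concentration that inhibits growth by half. At the TGI there is no net growth.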
Tests used:
Assay in all cases: NCI anticancer screen, dose series, 48 h
HCT-15 colon = tested on: HCT-15 colon
A498 renal = tested on: A498 renal
DLD-1 colon = tested on: DLD-1 colon
CCRF-CEM leukemia = tested on: CCRF-CEM leukemia
SNB-75 CNS = tested on: SNB-75 CNS
HCC-2998 colon = tested on: HCC-2998 colon
M19-MEL melanoma = tested on: M19-MEL melanoma
SK-OV-3 ovarian = tested on: SK-OV-3 ovarian
K-562 leukemia = tested on: K-562 leukemia
MDA-N = tested on: MDA-N
MCF7 breast = tested on: MCF7 breast

SMILES	TGI (HCT-15 colon)	TGI (A498 renal)	TGI (DLD-1 colon) [µM]	TGI (CCRF-CEM leukemia)	TGI (SNB-75 CNS)	TGI (HCC-2998 colon)	TGI (M19-MEL melanoma) [µM]	TGI (SK-OV-3 ovarian)	TGI (K-562 leukemia) [µM]	TGI (MDA-N) [µM]	TGI (MCF7 breast)	GI50 (MDA-N)	GI50 (SNB-75 CNS)	GI50 (SK-OV-3 ovarian)	GI50 (K-562 leukemia)	GI50 (HCT-15 colon) [µM]	GI50 (A498 renal) [µM]	GI50 (MCF7 breast) [µM]	GI50 (CCRF-CEM leukemia) [µM]	GI50 (HCC-2998 colon) [µM]
CCN(CC)CCOc1ccc(C(O)(Cc2ccc(OC)cc2)c2ccccc2)cc1 (stereo unspecified)	51 µM	41.2 µM	72.3	44.9 µM	27.6 µM	27.5 µM	29.5	57.9 µM	18.6											
Cc1ccc(S(=O)(=O)n2ccc(-c3ccc4ccn(S(=O)(=O)c5ccc(C)cc5)c4c3)c2)cc1	> 100 µM	> 100 µM		> 100 µM	> 100 µM	> 100 µM		> 100 µM	> 100	> 100	> 100 µM									
C=Cc1nc(C#N)c(N)o1	> 100 µM	> 100 µM		> 100 µM	> 100 µM	> 100 µM		> 100 µM	> 100	> 100	> 100 µM									
CN(C)CC1CCC/C(=C\c2ccc(OC(=O)/C=C/c3ccc(Cl)c(Cl)c3)cc2)C1=O (stereo unspecified)	6.84 µM	32.1 µM		1.77 µM	68.5 µM	10.1 µM		> 100 µM	> 100	12.1	5.79 µM									
O=C(N/N=C(/COc1ccccc1Cl)N=Cc1ccncc1)c1ccncc1	> 100 µM	> 100 µM		> 100 µM	98.7 µM	> 100 µM		> 100 µM	> 100	> 100	> 100 µM									
COc1ccc([C@]23CCN4COC[C@@H]([C@H]42)C2(CC3)OCC(C)(C)CO2)cc1OC	> 100 µM	> 100 µM		> 100 µM	> 100 µM	> 100 µM		> 100 µM	> 100	> 100	> 100 µM									
Cc1c2ccccc2c(C)n2c1nc1ccccc12	65.7 µM	25.5 µM		60.5 µM	27.7 µM	22.7 µM		27.1 µM	> 100	25	13.3 µM									
Cn1ccnc1CCc1ccc(Cl)c(Cl)c1	> 100 µM	> 100 µM	> 100	> 100 µM	> 100 µM		> 100	> 100 µM	> 100											
CC(=O)OC(C)(C)CCC(=O)[C@](C)(O)[C@H]1[C@H](O)C[C@@]2(C)[C@@H]3CC=C4C(C)=C(OC5OC(CO)C(O)C(O)C5O)C(=O)C[C@@H]4[C@]3(C)C(=O)C[C@]12C (stereo partly specified)	> 100 µM	> 100 µM		> 100 µM	> 100 µM	> 100 µM		> 100 µM	> 100	> 100	> 100 µM									
CN(C)c1ccc(/C=C/C(=O)O)cc1	> 100 µM	> 100 µM	> 100	> 100 µM	> 100 µM	> 100 µM	> 100	> 100 µM	> 100											
CC(=O)NC1(C(=O)N[C@@H](Cc2ccccc2)C(=O)NC2CCCCC2)Cc2ccc3ccccc3c2-c2c(ccc3ccccc23)C1	> 100 µM	> 100 µM		> 100 µM and 40.3 µM	> 100 µM and 36.6 µM	> 100 µM and 89.5 µM		> 100 µM	> 100	> 100	> 100 µM	5.39 µM and 15.2 µM	7.84 µM and 1.43 µM	27.6 µM and > 100 µM	2.7 µM and 7.67 µM					
COc1c2ccsc2c(OC)c2ccsc12	> 100 µM	> 100 µM		> 100 µM	> 100 µM	> 100 µM		> 100 µM	> 100	> 100	> 100 µM									
COc1ccc(C2SCC(=O)N2NC(=O)C(C)Oc2ccccc2C)cc1 (stereo unspecified)	> 100 µM	> 100 µM		> 100 µM	> 100 µM	> 100 µM		> 100 µM	> 100	> 100	> 100 µM									
Cc1c(O)c(OC2OC(CO)C(O)C(O)C2O)cc2c1C=C[C@@H]1[C@@]2(C)C(=O)C[C@]2(C)[C@@H]([C@@](C)(O)C(=O)CCC(C)(C)O)[C@H](O)C[C@@]12C (stereo partly specified)	66.3 µM	36.7 µM		> 100 µM	62.9 µM	41 µM		42.1 µM	> 100	77.5	> 100 µM									
COc1cc(CCN(C)C)cc(OC)c1OC	> 100 µM	> 100 µM		> 100 µM	> 100 µM	> 100 µM		> 100 µM	> 100	> 100	> 100 µM									
C[n+]1c2ccccc2c(/C=N\NS(=O)(=O)c2ccc(Cl)cc2)c2ccccc21	> 100 µM	> 100 µM	> 100	> 100 µM	> 100 µM	> 100 µM	> 100	> 100 µM	> 100											
CCOC(=O)CCC(NC(=O)Cc1ccc(Oc2nc3ccccc3nc2-c2ccccc2)cc1)C(=O)OCC (stereo unspecified)	> 100 µM	> 100 µM		> 100 µM	> 100 µM	> 100 µM		> 100 µM	> 100	> 100	> 100 µM									
CC(=O)N(C(C)=O)n1c(Cc2ccc(C)cc2)nn(C(C)=O)c1=O	> 100 µM	> 100 µM		> 100 µM	> 100 µM	> 100 µM		> 100 µM	> 100	> 100	> 100 µM									
COc1cccc(-c2nccc3c(OCc4ccccc4)c(OC)c(OC)cc23)c1	> 100 µM	> 100 µM	> 100	> 100 µM	> 100 µM	> 100 µM	> 100	> 100 µM	> 100											
CCN(CC)CCOC(=O)Cc1cccc2c(=O)cc(-c3ccccc3)oc12	62.5 µM and > 216 µM	62.5 µM and > 145 µM	> 195		50.1 µM and 126 µM	62.5 µM and > 102 µM	> 223	62.5 µM and > 108 µM		62.5	62.5 µM and > 216 µM		13 µM		406 µM	82.5	40.2	46.9	336	34.1
NC(=Nc1ccccc1)c1ccccc1N	> 100 µM	> 100 µM		> 100 µM	> 100 µM	> 100 µM		> 100 µM	> 100	> 100	> 100 µM									
O=C(c1ccc(O)c([N+](=O)[O-])c1)c1ccc(O)c([N+](=O)[O-])c1	> 100 µM	> 100 µM		> 100 µM	85.7 µM	> 100 µM		> 100 µM	> 100	> 100	> 100 µM									
COC1(c2cccs2)c2ccccc2C(OC)(c2cccs2)c2ccccc21 (stereo unspecified)	> 100 µM	83.4 µM		> 100 µM	> 100 µM	> 100 µM		> 100 µM	> 100	> 100	> 100 µM									
O=C1CS[C@@](CC(c2ccc(Cl)cc2)c2ccc(Cl)cc2)(c2ccc(Cl)cc2)N1	> 100 µM	45.8 µM		> 100 µM	> 100 µM	> 100 µM		> 100 µM	> 100	> 100	26.4 µM									
CCCN(CCC)C1CCc2c(ccc3cc[nH]c23)C1 (stereo unspecified)	> 100 µM	> 100 µM		73.3 µM	> 100 µM	59.9 µM		> 100 µM	> 100	> 100	> 100 µM									
O=[N+]([O-])c1ccc([N+]2=NC(c3ccccc3)=NN(c3ccccc3)C2)cc1	> 100 µM		> 100	> 100 µM	> 100 µM		> 100	> 100 µM	> 100											
O=C(CSc1nnc(-c2ccc(N=Cc3ccc(Cl)cc3)cc2)o1)Nc1ccc([N+](=O)[O-])cc1	32.6 µM			47.6 µM	58.1 µM		36.9	> 100 µM	97.1											
COC12C=CC(C=C1C#N)CC2 (stereo unspecified) (tested in a mixture with another compound)	> 100 µM	> 100 µM		> 100 µM	> 100 µM	> 100 µM		> 100 µM	> 100	> 100	> 100 µM									
Nc1nc(=O)n(C2OC(CO)C(O)C2O)c2ncc(-c3ccc(-c4ccccc4)cc3)nc12 (stereo unspecified)	> 100 µM	> 100 µM		> 100 µM	> 100 µM	> 100 µM		> 100 µM	> 100	> 100	> 100 µM									

Source: PubChem BioAssay (NCI)
